According to the supplement of paper PMC10307832:

Tests used:
Experiment in all cases: relative viability (nuclei count vs DMSO), 5 days (fraction); higher = more cells survive
[1] = compound: CC1=C(C(=NN1)C)CC2=C(C3=C(S2)N(C(=O)N(C3=O)C)CC(C)C)C(=O)N4C[C@@H](CO4)O + Cc1cc(Nc2cc(N3CCN(C)CC3)nc(Sc3ccc(NC(=O)C4CC4)cc3)n2)n[nH]1 [Tozasertib] (partner 0.1 µM)
How it was run: (§1)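 Each reported value is a median over duplicate plates. It expresses relative viability: treated-well nuclei count divided by vehicle-well nuclei count. Lung cancer cell lines in 1536-well plates were dosed by pin tool a day after seeding, alone with one drug or with a fixed anchor-drug dose plus five library-drug doses (not always all listed) in √10 steps, and nuclei were counted after 5 days.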

[2] = compound: Cc1ccccc1C(C(=O)NC1CCCCC1)N(C(=O)Cn1ccnc1C)c1cccc(F)c1 [IDH-C35] + Cc1nc(NC(=O)N2CCC[C@H]2C(N)=O)sc1-c1ccnc(C(C)(C)C(F)(F)F)c1 [Alpelisib] (partner 2 µM)
How it was run: as §1

[3] = compound: CC1=C(C(=NN1)C)CC2=C(C3=C(S2)N(C(=O)N(C3=O)C)CC(C)C)C(=O)N4C[C@@H](CO4)O + NC(=O)Nc1cc(-c2cccc(F)c2)sc1C(=O)N[C@H]1CCCNC1 [AZD7762] (partner 0.2 µM)
How it was run: as §1

[4] = compound: CC1=C(C(=NN1)C)CC2=C(C3=C(S2)N(C(=O)N(C3=O)C)CC(C)C)C(=O)N4C[C@@H](CO4)O + COc1cccc2cc(-c3nc([C@H]4CC[C@H](C(=O)O)CC4)n4ncnc(N)c34)[nH]c12 [OSI-027] (partner 0.5 µM)
How it was run: as §1

Row | Cell Line | relative viability ([1]; first compound 0.0025 µM) | relative viability ([1]; first compound 0.007906 µM) | relative viability ([1]; first compound 0.025 µM) | relative viability ([1]; first compound 0.07906 µM) | relative viability ([1]; first compound 0.25 µM) | relative viability ([2]; first compound 0.08 µM) | relative viability ([2]; first compound 0.253 µM) | relative viability ([2]; first compound 0.8 µM) | relative viability ([2]; first compound 2.53 µM) | relative viability ([2]; first compound 8 µM) | relative viability ([3]; first compound 0.0025 µM) | relative viability ([3]; first compound 0.007906 µM) | relative viability ([3]; first compound 0.025 µM) | relative viability ([3]; first compound 0.07906 µM) | relative viability ([3]; first compound 0.25 µM) | relative viability ([4]; first compound 0.0025 µM) | relative viability ([4]; first compound 0.007906 µM) | relative viability ([4]; first compound 0.025 µM) | relative viability ([4]; first compound 0.07906 µM) | relative viability ([4]; first compound 0.25 µM)
1 | NCI-H1993 | 0.559 | 0.522 | 0.546 | 0.508 | 0.572 | 0.667 | 0.732 | 0.63 | 0.768 | 0.711 | 0.893 | 0.656 | 0.596 | 0.674 | 0.696 | 0.515 | 0.539 | 0.541 | 0.463 | 0.57
2 | NCI-H1734 | 0.309 | 0.248 | 0.25 | 0.234 | 0.259 | 0.764 | 0.694 | 0.72 | 0.641 | 0.648 | 0.53 | 0.581 | 0.342 | 0.402 | 0.381 | 0.682 | 0.592 | 0.65 | 0.617 | 0.624
3 | HOP-62 | 0.312 | 0.376 | 0.344 | 0.393 | 0.407 | 1.07 | 0.876 | 0.953 |  | 0.85 | 0.668 | 0.589 | 0.646 | 0.615 | 0.851 | 0.896 | 0.849 | 0.756 | 0.763 | 0.909
4 | LOU-NH91 | 0.723 | 0.674 | 0.709 | 0.792 | 0.838 | 0.746 | 0.774 | 0.712 | 0.711 | 0.706 | 0.817 | 0.817 | 0.75 | 0.863 | 0.742 | 0.719 | 0.714 | 0.715 | 0.84 | 0.727
5 | PC-14 | 0.593 | 0.549 | 0.525 | 0.614 | 0.598 | 1.02 | 0.956 | 0.959 | 0.927 | 0.758 | 0.33 | 0.371 | 0.332 | 0.374 | 0.306 | 0.785 | 1.19 | 0.78 | 1.01 | 1.16
6 | NCI-H1437 | 0.399 | 0.409 | 0.408 | 0.409 | 0.438 | 0.961 | 0.992 | 0.896 | 0.933 | 0.966 | 1.21 | 1.07 | 1.09 | 1.11 | 1.14 | 0.894 | 0.892 | 0.867 | 0.93 | 0.857
7 | NCI-H460 | 0.493 | 0.337 | 0.494 | 0.479 | 0.54 | 0.472 | 0.504 | 0.545 | 0.549 | 0.439 | 0.726 | 0.65 | 0.562 | 0.551 | 0.596 | 0.718 | 0.821 | 0.683 | 0.648 | 0.779
8 | NCI-H1666 | 0.599 | 0.661 | 0.592 | 0.806 | 0.633 | 0.974 | 0.951 | 0.955 | 0.986 | 0.911 | 0.741 | 0.859 | 0.812 | 0.787 | 1.01 | 0.881 | 0.927 | 0.811 | 0.8 | 0.944
9 | NCI-H1651 | 0.702 | 0.802 | 0.58 | 0.625 | 0.767 | 1.03 | 0.812 | 0.937 | 0.945 | 1 | 0.414 | 0.478 | 0.391 | 0.337 | 0.416 | 0.726 | 0.734 | 0.846 | 0.659 | 0.662
10 | NCI-H1755 | 0.71 | 0.571 | 0.543 | 0.486 | 0.593 | 0.976 | 0.875 | 0.955 | 0.927 | 0.877 | 0.465 | 0.434 | 0.425 | 0.407 | 0.471 | 0.767 | 0.743 | 0.684 | 0.702 | 0.704
11 | HARA | 0.129 | 0.125 | 0.105 | 0.111 | 0.112 | 0.727 | 0.8 | 0.874 | 0.78 | 0.729 | 0.281 | 0.288 | 0.324 | 0.297 | 0.218 | 0.548 | 0.565 | 0.513 | 0.506 | 0.489
12 | NCI-H596 | 0.976 | 1.07 | 1.04 | 0.94 | 0.889 | 0.552 | 0.48 | 0.555 | 0.471 | 0.446 | 1.29 | 1.25 | 1.06 | 0.976 | 1.01 | 0.721 | 0.822 | 0.889 | 0.803 | 0.715
13 | NCI-H23 | 0.784 | 0.42 | 0.412 | 0.334 | 0.388 | 0.622 | 0.591 | 0.648 | 0.73 | 0.834 | 0.23 | 0.208 | 0.298 | 0.271 | 0.31 | 0.814 | 0.557 | 0.701 | 0.475 | 0.602
14 | LCLC-97TM1 | 0.207 | 0.277 | 0.219 | 0.209 | 0.285 | 0.289 | 0.213 | 0.242 |  | 0.242 | 0.194 | 0.326 | 0.331 | 0.28 | 0.369 | 0.665 | 0.515 | 0.513 | 0.548 | 0.564
15 | EPLC-272H | 0.267 | 0.227 | 0.324 | 0.259 | 0.609 | 1.04 | 0.942 | 0.895 |  | 0.897 | 0.252 | 0.21 | 0.225 | 0.144 | 0.231 | 0.275 | 0.225 | 0.312 | 0.314 | 0.308
16 | NCI-H1915 | 0.443 | 0.436 | 0.446 | 0.446 | 0.45 | 1.08 | 1.07 | 1.04 | 1.05 | 1.04 | 0.742 | 0.727 | 0.658 | 0.641 | 0.762 | 0.647 | 0.667 | 0.646 | 0.694 | 0.659
